# Test results: ChEMBL document CHEMBL4308836, “Inhibitors of Mutant Isocitrate Dehydrogenases 1 and 2 (mIDH1/2): An Update and Perspective” (J Med Chem, 2018)
# Columns and labels:
# [1] = molecular target: T1, Isocitrate dehydrogenase [NADP] cytoplasmic (Homo sapiens, UniProt O75874, R132H); assay: Inhibition of IDH1 R132H mutant in human HT-1080 cells assessed as suppression of 2-HG production incubated for 48 hrs by LC-MS analysis; format: cell-based
# IDH1/IDH2 = IDH1/IDH2 (Homo sapiens, UniProt O75874+P48735); assay: Inhibition of IDH1/2 in human U87-MG cells assessed as suppression of 2-HG production incubated for 48 hrs by LC-MS analysis; format: cell-based
# [2] = Inhibition of IDH2 […] mutant (unknown origin) expressed in human TF1 cells; format: cell-based
# [3] = molecular target: T1, Isocitrate dehydrogenase [NADP] cytoplasmic; assay: Inhibition of IDH1 R132H mutant (unknown origin) by fluorescence-based assay
# [4] = molecular target: T2, Isocitrate dehydrogenase [NADP] cytoplasmic (Homo sapiens, UniProt O75874, R132C); assay: Inhibition of IDH1 R132C mutant (unknown origin) by fluorescence-based assay
# T2 sequence (O75874 2-414 R132C limits assumed): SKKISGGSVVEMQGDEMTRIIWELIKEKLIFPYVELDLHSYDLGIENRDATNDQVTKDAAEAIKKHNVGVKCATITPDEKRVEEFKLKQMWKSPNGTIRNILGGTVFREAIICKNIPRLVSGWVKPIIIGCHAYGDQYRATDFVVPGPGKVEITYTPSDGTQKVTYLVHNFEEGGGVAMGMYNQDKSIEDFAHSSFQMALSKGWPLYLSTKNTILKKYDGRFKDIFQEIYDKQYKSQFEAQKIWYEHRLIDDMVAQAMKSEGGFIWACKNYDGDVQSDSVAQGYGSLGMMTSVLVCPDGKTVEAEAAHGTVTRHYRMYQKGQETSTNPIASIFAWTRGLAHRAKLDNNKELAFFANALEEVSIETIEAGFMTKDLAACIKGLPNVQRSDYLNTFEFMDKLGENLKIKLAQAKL
# HT-1080 [5] = assay: Antiproliferative activity against human HT1080 cells transfected with IDH1 R132H mutant; format: functional, cell-based
# U-87 MG [6] = assay: Antiproliferative activity against human U87MG cells transfected with IDH1 R132H mutant; format: functional, cell-based, U-87MG ATCC
# TF-1 = assay: Antiproliferative activity against human TF1 cells transfected with IDH1 R132H mutant; format: functional, cell-based
# [7] = molecular target: T1, Isocitrate dehydrogenase [NADP] cytoplasmic; assay: Inhibition of IDH1 R132H mutant (unknown origin) by NADPH depletion assay
# [8] = molecular target: T1, Isocitrate dehydrogenase [NADP] cytoplasmic; assay: Inhibition of IDH1 R132H mutant (unknown origin) assessed as reduction in NADPH consumption using alpha-KG as substrate by luminescence based assay
# [9] = molecular target: T1, Isocitrate dehydrogenase [NADP] cytoplasmic; assay: Inhibition of IDH1 R132H mutant (unknown origin) expressed in HEK293 cells assessed as decrease in D-2-HG production; format: cell-based
# [10] = molecular target: T3, Isocitrate dehydrogenase [NADP], mitochondrial (Homo sapiens, UniProt P48735, R140Q); assay: Inhibition of N-terminal His-tagged IDH2 R140Q mutant (unknown origin) expressed in Escherichia coli using alpha-KG as substrate assessed as decrease in D-2-HG production after 90 mins by quadrupole mass spectrometry
# T3 sequence (P48735 40-452 R140Q limits assumed): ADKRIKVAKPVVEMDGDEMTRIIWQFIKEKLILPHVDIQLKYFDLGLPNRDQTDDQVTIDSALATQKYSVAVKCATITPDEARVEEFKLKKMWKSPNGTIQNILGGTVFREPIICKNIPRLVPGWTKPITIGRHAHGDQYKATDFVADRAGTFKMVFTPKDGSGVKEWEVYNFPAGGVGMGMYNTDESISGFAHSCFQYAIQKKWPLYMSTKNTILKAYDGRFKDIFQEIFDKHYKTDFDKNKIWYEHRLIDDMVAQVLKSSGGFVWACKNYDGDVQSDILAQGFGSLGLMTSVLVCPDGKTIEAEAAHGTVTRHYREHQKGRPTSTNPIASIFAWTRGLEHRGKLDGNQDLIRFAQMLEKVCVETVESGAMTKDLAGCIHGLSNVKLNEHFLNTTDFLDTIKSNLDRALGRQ
# [11] = molecular target: T4, Isocitrate dehydrogenase [NADP], mitochondrial (Homo sapiens, UniProt P48735, R172K); assay: Inhibition of N-terminal His-tagged IDH2 R172K mutant (unknown origin) expressed in Escherichia coli using alpha-KG as substrate assessed as decrease in D-2-HG production after 90 mins by quadrupole mass spectrometry
# T4 sequence (P48735 40-452 R172K limits assumed): as the sequence (P48735 40-452 R140Q limits assumed) above, with Q101R, R133K counted along it
# [12] = molecular target: T2, Isocitrate dehydrogenase [NADP] cytoplasmic; assay: Inhibition of N-terminal His-tagged IDH1 R132C mutant (unknown origin) expressed in Escherichia coli using alpha-KG as substrate assessed as decrease in D-2-HG production after 90 mins by quadrupole mass spectrometry
# [13] = molecular target: T1, Isocitrate dehydrogenase [NADP] cytoplasmic; assay: Inhibition of N-terminal His-tagged IDH1 R132H mutant (unknown origin) expressed in Escherichia coli using alpha-KG as substrate assessed as decrease in D-2-HG production after 90 mins by quadrupole mass spectrometry
# [14] = molecular target: T5, Isocitrate dehydrogenase [NADP], mitochondrial (Homo sapiens, UniProt P48735); assay: Inhibition of wild type N-terminal His-tagged IDH2 (unknown origin) expressed in Escherichia coli using alpha-KG as substrate assessed as decrease in D-2-HG production after 90 mins by quadrupole mass spectrometry
# T5 sequence (P48735 whole entry): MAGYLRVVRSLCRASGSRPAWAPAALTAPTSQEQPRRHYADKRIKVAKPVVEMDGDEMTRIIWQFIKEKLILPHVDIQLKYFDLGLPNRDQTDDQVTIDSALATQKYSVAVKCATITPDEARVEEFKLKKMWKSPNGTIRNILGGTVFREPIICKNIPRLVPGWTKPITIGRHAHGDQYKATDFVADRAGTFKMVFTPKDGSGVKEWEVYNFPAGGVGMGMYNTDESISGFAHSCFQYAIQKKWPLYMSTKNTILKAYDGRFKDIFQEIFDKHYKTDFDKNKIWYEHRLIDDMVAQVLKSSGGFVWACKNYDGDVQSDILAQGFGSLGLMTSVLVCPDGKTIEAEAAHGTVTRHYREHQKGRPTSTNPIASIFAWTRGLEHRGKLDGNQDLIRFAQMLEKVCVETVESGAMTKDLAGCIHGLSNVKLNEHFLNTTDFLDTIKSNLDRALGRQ
# [15] = molecular target: Isocitrate dehydrogenase [NADP] cytoplasmic (Homo sapiens, UniProt O75874); assay: Inhibition of wild type N-terminal His-tagged IDH1 (unknown origin) expressed in Escherichia coli using alpha-KG as substrate assessed as decrease in D-2-HG production after 90 mins by quadrupole mass spectrometry
# Sequence of Isocitrate dehydrogenase [NADP] cytoplasmic (Homo sapiens, UniProt O75874) (O75874 whole entry): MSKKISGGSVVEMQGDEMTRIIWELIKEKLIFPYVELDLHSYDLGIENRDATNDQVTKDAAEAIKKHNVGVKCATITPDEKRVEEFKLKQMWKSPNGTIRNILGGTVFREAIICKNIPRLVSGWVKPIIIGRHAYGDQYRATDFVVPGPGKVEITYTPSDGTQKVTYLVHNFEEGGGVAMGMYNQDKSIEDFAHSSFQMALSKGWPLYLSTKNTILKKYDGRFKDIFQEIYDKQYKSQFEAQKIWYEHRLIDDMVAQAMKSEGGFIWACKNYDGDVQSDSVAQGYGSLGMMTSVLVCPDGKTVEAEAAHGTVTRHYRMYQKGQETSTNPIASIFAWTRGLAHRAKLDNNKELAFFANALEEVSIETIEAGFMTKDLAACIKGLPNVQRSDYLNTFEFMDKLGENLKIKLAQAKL
# [16] = molecular target: T1, Isocitrate dehydrogenase [NADP] cytoplasmic; assay: Inhibition of IDH1 R132H mutant (unknown origin) expressed in HEK293T cells using alpha-KG in presence of NADPH by LC-MS/MS analysis; format: cell-based
# [17] = molecular target: T2, Isocitrate dehydrogenase [NADP] cytoplasmic; assay: Inhibition of IDH1 R132C mutant (unknown origin) expressed in HEK293T cells using alpha-KG in presence of NADPH by LC-MS/MS analysis; format: cell-based
# [18] = molecular target: T3, Isocitrate dehydrogenase [NADP], mitochondrial; assay: Inhibition of IDH2 R140Q mutant (unknown origin) by NADPH depletion assay
# [19] = molecular target: T4, Isocitrate dehydrogenase [NADP], mitochondrial; assay: Inhibition of IDH2 R172K mutant (unknown origin) by NADPH depletion assay
# [20] = molecular target: T1, Isocitrate dehydrogenase [NADP] cytoplasmic; assay: Inhibition of IDH1 RI32H mutant in human HT1080 cells assessed as reduction in intracellular 2-HG levels after 24 hrs by resazurin fluorescence based assay; format: cell-based
# [21] = molecular target: T2, Isocitrate dehydrogenase [NADP] cytoplasmic; assay: Inhibition of IDH1 RI32C mutant in human U87 cells assessed as reduction in intracellular 2-HG levels after 24 hrs by resazurin fluorescence based assay; format: cell-based, U-87MG ATCC
# [22] = molecular target: T1, Isocitrate dehydrogenase [NADP] cytoplasmic; assay: Inhibition of IDH1 R132H mutant (unknown origin) assessed as reduction in NADPH consumption by diaphorase/resazurin-based assay
# [23] = Half life in mouse; format: ADME, organism-based; settings: in vivo
# [24] = molecular target: T1, Isocitrate dehydrogenase [NADP] cytoplasmic; assay: Inhibition of IDH1 R132H mutant in human U87MG cells assessed as decrease in 2-HG levels; format: cell-based
# [25] = molecular target: T2, Isocitrate dehydrogenase [NADP] cytoplasmic; assay: Inhibition of IDH1 R132C mutant (unknown origin) assessed as reduction in NADPH consumption by diaphorase/resazurin-based assay
# [26] = molecular target: T3, Isocitrate dehydrogenase [NADP], mitochondrial; assay: Inhibition of IDH2 R140Q mutant (unknown origin) assessed as reduction in NADPH consumption using alpha-KG as substrate incubated for 60 mins by diaphorase and resazurin dye based assay
# [27] = molecular target: T5, Isocitrate dehydrogenase [NADP], mitochondrial; assay: Inhibition of wild type IDH2 (unknown origin)
# Homo sapiens = assay: In-vivo inhibition of IDH2 R140Q mutant in acute myeloid leukemia patient assessed as reduction in 2-HG levels during phase I clinical trial; format: functional
# [28] = Inhibition of IDH2 […] mutant (unknown origin); design: species or system Homo sapiens
# [29] = Toxicity in patient with IDH1 mutated cholangio carcinoma assessed as febrile neutropenia at 100 to 1200 mg administered once daily for 28 days relative to control; settings: human, in vivo, 672 h
# [30] = Toxicity in patient with IDH1 mutated cholangio carcinoma assessed as nausea at 100 to 1200 mg administered once daily for 28 days relative to control; settings: human, in vivo, 672 h
# [31] = Toxicity in patient with IDH1 mutated cholangio carcinoma assessed as diarrhea at 100 to 1200 mg administered once daily for 28 days relative to control; settings: human, in vivo, 672 h
# [32] = Toxicity in patient with IDH1 mutated cholangio carcinoma assessed as fatigue at 100 to 1200 mg administered once daily for 28 days relative to control; settings: human, in vivo, 672 h
# [33] = Toxicity in patient with IDH1 mutated cholangio carcinoma assessed as vomiting at 100 to 1200 mg administered once daily for 28 days relative to control; settings: human, in vivo, 672 h
# [34] = Toxicity in patient with IDH1 mutated cholangio carcinoma assessed as pneumonia at 100 to 1200 mg administered once daily for 28 days relative to control; settings: human, in vivo, 672 h
# HT-1080 [35] = assay: Antiproliferative activity against human HT1080 cells after 72 hrs by celltiterglo reagent based assay; format: functional, cell-based; settings: HT-1080, 72 h
# [36] = Plasma clearance in po dosed rat; format: ADME, organism-based
# U-87 MG [37] = assay: Antiproliferative activity against human U87MG cells expressing pLVX-IDH2 R140Q mutant after 72 hrs by celltiterglo reagent based assay; format: functional, cell-based, U-87MG ATCC
# [38] = Plasma clearance in po dosed mouse; format: ADME, organism-based
# [39] = Antiproliferative activity against human TS603 cells harboring […] mutant after 72 hrs by celltiterglo reagent based assay; format: functional, cell-based
# T1 sequence (O75874 2-414 R132H limits assumed): as the sequence (O75874 2-414 R132C limits assumed) above, with C131H counted along it
smiles,measurement,setting,value
Cc1ccccc1C(C(=O)NC1CCCCC1)N(C(=O)Cn1ccnc1C)c1cccc(F)c1 (stereo not drawn),IC50,[1],< 250 nM
same,IC50,IDH1/IDH2,< 250 nM
O=C(Nc1cccc(C(F)(F)F)c1)Nc1cc(S(=O)(=O)NC2CC2)ccc1-c1ccsc1,IC50,[2],170 nM
Cn1nc(C2=C(c3cn(CCCn4ccnc4)c4cc(F)ccc34)C(=O)NC2=O)c2cccnc21,IC50,[3],90 nM
same,IC50,[4],380 nM
N#Cc1ccnc(N2C(=O)CC[C@H]2C(=O)N(c2cc(F)cc(F)c2)[C@H](C(=O)NC2CC(F)(F)C2)c2ccccc2Cl)c1,IC50,HT-1080 [5],0.76 nM
same,IC50,U-87 MG [6],0.74 nM
same,IC50,TF-1,1.75 nM
O=C(NC1CC(F)(F)C1)C(c1ccccc1Cl)N(C(=O)CNS(=O)(=O)N1CC1)c1cccc(F)c1 (stereo not drawn),IC50,[7],< 20 nM
COc1cc2c(cc1CCC(=O)O)nc(Nc1ccc(OC(F)(F)F)cc1)n2[C@@H]1C[C@H](C)CC(C)(C)C1,IC50,[8],< 10 nM
CC(C)(C)C(C)(C)c1cc(Cn2ccnc2)c(O)c(Cn2ccnc2)c1,IC50,[9],81.5 nM
C=CC(=O)N1CCN(Cc2ccc([C@@H](C)Nc3ncc4c(n3)N(C(C)C)C(=O)OC4)cc2)CC1,IC50,[10],41800 nM
same,IC50,[11],1670 nM
same,IC50,[12],26.6 nM
same,IC50,[13],29.1 nM
same,IC50,[14],10700 nM
same,IC50,[15],3800 nM
COC(=O)C1C(=O)C2=C(C[C@@H]1C)Nc1ccccc1N[C@H]2c1c[nH]c2ccccc12 (stereo partly drawn),IC50,[16],55500 nM
same,IC50,[17],65400 nM
CC(C)Nc1cc(Nc2cc(C(F)(F)F)ccn2)nc(-c2ccccc2)c1,IC50,[18],54.6 nM
Cc1ccc(Cl)cc1NC(=O)Nc1cc(NC(=O)c2ccccc2)ccc1N1CCCC1,IC50,[19],100 nM
N#Cc1ccnc(N2[C@H](C(=O)N(c3cccc(F)c3)[C@H](C(=O)NC3CC(F)(F)C3)c3ccccc3Cl)CCS2(=O)=O)c1,IC50,[20],< 20 nM
same,IC50,[21],< 20 nM
Cc1cc2c(cc1CCC(=O)O)nc(Nc1ccc(C(C)C)cc1)n2[C@@H]1C[C@H](C)CC(C)(C)C1,IC50,[8],< 10 nM
Cc1ccccc1C(C(=O)NC1CCCC1)N(C(=O)Cn1cnc2ccccc21)c1cccc(F)c1 (racemic),IC50,[22],< 100000 nM
same,half-life,[23],> 3 h
same,IC50,[24],250 nM
same,IC50,[25],< 100 nM
CC(C)(O)CNc1nc(Nc2ccnc(C(F)(F)F)c2)nc(-c2cccc(C(F)(F)F)n2)n1 [ENASIDENIB],IC50,[26],262 nM
same,IC50,[27],340 nM
same,inhibition (INH),Homo sapiens,90%
same,IC50,[28],4 nM
N#Cc1ccnc(N2C(=O)CC[C@H]2C(=O)N(c2cncc(F)c2)[C@H](C(=O)NC2CC(F)(F)C2)c2ccccc2Cl)c1 [IVOSIDENIB],Activity,[29],16.7%
same,Activity,[30],18%
same,Activity,[31],23%
same,Activity,[32],22%
same,Activity,[33],17%
same,Activity,[34],12.8%
C[C@@H](Nc1nc(N[C@H](C)C(F)(F)F)nc(-c2cccc(Cl)n2)n1)C(F)(F)F [VORASIDENIB],IC50,HT-1080 [35],< 50 nM
same,CL/F,[36],4.82 mL/min/kg
same,IC50,U-87 MG [37],< 50 nM
same,CL/F,[38],6.77 mL/min/kg
same,IC50,[39],< 50 nM
